Assays:
Format in all cases: cell-based
alpha2B receptor = target: T1, alpha2B receptor (Homo sapiens, UniProt P18089); experiment: RSAT (Receptor Selection and Amplification Technology) assay, alpha 2B; conditions: for EC50: RSAT, transfected NIH-3T3 cells, "not active" = not active at concentrations less than 10 micromolar, read-out: Alpha 2B EC50; for Alpha 2B IA: intrinsic activity: ratio of maximal effect of drug to maximal effect of standard full agonist brimonidine (UK14304)
T1 construct: expressed in transfected cells; host or cells: NIH-3T3 cells
T1 sequence (P18089 1-450): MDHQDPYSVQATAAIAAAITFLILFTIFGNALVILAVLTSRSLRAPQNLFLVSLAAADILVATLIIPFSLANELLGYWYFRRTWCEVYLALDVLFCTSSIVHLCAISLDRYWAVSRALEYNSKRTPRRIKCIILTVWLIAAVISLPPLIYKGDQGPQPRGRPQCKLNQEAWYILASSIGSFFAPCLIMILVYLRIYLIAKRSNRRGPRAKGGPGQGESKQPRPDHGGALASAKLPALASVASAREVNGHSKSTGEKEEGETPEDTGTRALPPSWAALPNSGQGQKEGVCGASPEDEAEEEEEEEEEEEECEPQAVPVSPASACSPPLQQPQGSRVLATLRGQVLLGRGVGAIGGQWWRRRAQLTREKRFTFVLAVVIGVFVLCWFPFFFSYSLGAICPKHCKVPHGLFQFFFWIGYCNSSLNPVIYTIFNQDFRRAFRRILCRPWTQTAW
Method: (§1) The RSAT assay measures a receptor-mediated loss of contact inhibition that results in selective proliferation of receptor-containing cells in a mixed population of confluent cells. The increase in cell number is assessed with an appropriate transfected marker gene such as ∃-galactosidase, the activity of which can be easily measured in a 96-well format. Receptors that activate the G protein, Gq, elicit this response. Alpha 2 receptors, which normally couple to Gi, activate the RSAT response when coexpressed with a hybrid Gq protein that has a Gi receptor recognition domain, called Gq/i5.
(§2) NIH-3T3 cells are plated at a density of 2×10^6 cells in 15 cm dishes and maintained in Dulbecco's modified Eagle's medium supplemented with 10% calf serum. One day later, cells are cotransfected by calcium phosphate precipitation with mammalian expression plasmids encoding p-SV-β-galactosidase (5-10 μg), receptor (1-2 μg) and G protein (1-2 μg). 40 μg salmon sperm DNA may also be included in the transfection mixture. Fresh media is added on the following day and 1-2 days later, cells are harvested and frozen in 50 assay aliquots. Cells are thawed and 100 μl added to 100 μl aliquots of various concentrations of drugs in triplicate in 96-well dishes. Incubations continue 72-96 hr at 37° C. After washing with phosphate-buffered saline, ∃-galactosidase enzyme activity is determined by adding 200 μl of the chromogenic substrate (consisting of 3.5 mM o-nitrophenyl-β-D-galactopyranoside and 0.5% nonidet P-40 in phosphate buffered saline), incubating overnight at 30° C. and measuring optical density at 420 nm. The absorbance is a measure of enzyme activity, which depends on cell number and reflects a receptor-mediated cell proliferation. The efficacy or intrinsic activity is calculated as a ratio of the maximal effect of the drug to the maximal effect of a standard full agonist for each receptor subtype. Brimonidine, also called UK14304, the chemical structure of which is shown below, is used as the standard agonist for the alpha2A, alpha2B and alpha2C receptors.

alpha2A receptor = target: T2, alpha2A receptor (Homo sapiens, UniProt P08913); experiment: RSAT (Receptor Selection and Amplification Technology) assay, alpha 2A; conditions: for EC50 / Alpha 2A EC50: RSAT, transfected NIH-3T3 cells, "not active" = not active at concentrations less than 10 micromolar; for Alpha 2A IA: intrinsic activity: ratio of maximal effect of drug to maximal effect of standard full agonist brimonidine (UK14304)
T2 construct: expressed in transfected cells; host or cells: NIH-3T3 cells
T2 sequence (P08913 1-465): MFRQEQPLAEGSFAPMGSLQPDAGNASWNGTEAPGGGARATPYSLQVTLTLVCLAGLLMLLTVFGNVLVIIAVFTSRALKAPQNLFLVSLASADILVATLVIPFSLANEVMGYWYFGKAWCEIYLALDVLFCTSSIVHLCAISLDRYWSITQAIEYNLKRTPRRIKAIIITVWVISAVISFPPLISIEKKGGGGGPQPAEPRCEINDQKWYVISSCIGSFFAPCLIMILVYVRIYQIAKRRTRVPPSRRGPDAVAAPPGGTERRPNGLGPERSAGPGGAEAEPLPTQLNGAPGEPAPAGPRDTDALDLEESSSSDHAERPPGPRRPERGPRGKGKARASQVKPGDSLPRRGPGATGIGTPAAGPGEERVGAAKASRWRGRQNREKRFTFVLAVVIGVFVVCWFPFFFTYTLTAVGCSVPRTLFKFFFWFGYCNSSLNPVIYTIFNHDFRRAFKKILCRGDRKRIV
Text: (§3) The aryl fluoroethyl ureas of the invention are agonists of alpha2 adrenergic receptors. […] Al, 1995, Pharmacol. Toxicol. 76, pp. 308-311 (incorporated herein by reference) and is also described below. Another reference pertinent to this assay is Conklin et al. (1993) Nature 363:274-6, Receptor Selection and Amplification Technology (RSAT) assay, also incorporated herein by reference.
as §1, §2
(§4) The results of the RSAT assay with several exemplary compounds of the invention are disclosed in Table 1 below together with the chemical structures of these compounds. “Not active” means the compounds are not active at concentrations less than 10 micromolar.

alpha2C receptor = target: T3, alpha2C receptor (Homo sapiens, UniProt P18825); experiment: RSAT (Receptor Selection and Amplification Technology) assay, alpha 2C; conditions: for EC50: RSAT, transfected NIH-3T3 cells, "not active" = not active at concentrations less than 10 micromolar; for Alpha 2C IA: intrinsic activity: ratio of maximal effect of drug to maximal effect of standard full agonist brimonidine (UK14304)
T3 construct: expressed in transfected cells; host or cells: NIH-3T3 cells
T3 sequence (P18825 1-462): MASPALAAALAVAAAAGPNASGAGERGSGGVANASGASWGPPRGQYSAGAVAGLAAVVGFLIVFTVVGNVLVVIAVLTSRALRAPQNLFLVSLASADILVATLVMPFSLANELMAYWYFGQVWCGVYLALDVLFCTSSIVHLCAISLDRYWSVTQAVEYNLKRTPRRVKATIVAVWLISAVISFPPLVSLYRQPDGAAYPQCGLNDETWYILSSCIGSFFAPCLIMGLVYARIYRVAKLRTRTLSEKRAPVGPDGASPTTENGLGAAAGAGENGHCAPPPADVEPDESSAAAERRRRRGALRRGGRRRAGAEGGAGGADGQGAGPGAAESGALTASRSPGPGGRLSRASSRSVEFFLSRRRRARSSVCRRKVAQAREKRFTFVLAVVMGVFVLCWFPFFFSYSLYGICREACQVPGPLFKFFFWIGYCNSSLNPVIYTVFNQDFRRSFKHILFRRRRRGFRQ
Text: as §3, §1, §2, §4

Row | EC50 (alpha2B receptor) [nM] | Alpha 2B IA (alpha2B receptor) | EC50 (alpha2A receptor) [nM] | Alpha 2A IA (alpha2A receptor) | EC50 (alpha2C receptor) [nM] | Alpha 2C IA (alpha2C receptor) | Alpha 2A EC50 (alpha2A receptor) | Structure (SMILES)
1 | 124 | 1.0 | 1750 | 0.54 | 1130 | 0.71 | – | O=C(NCCF)NCc1cccc(Cl)c1F [Compound 1, 1-(3-chloro-2-fluoro-benzyl)-3-(2-fluoro-ethyl)-urea]
2 | 152 | 1.13 | – | – | 1290 | 0.78 | not active | Cc1ccccc1CNC(=O)NCCF [Compound 2, 1-(2-fluoro-ethyl)-3-(2-methyl-benzyl)-urea]
3 | 148 | 1.1 | – | – | 363 | 0.63 | not active | O=C(NCCF)NCc1ccccc1F [Compound 3, 1-(2-fluoro-benzyl)-3-(2-fluoro-ethyl)-urea]
4 | 221 | 1.14 | – | – | 368 | 0.47 | not active | O=C(NCCF)NCc1cccc(F)c1 [Compound 4, 1-(3-fluoro-benzyl)-3-(2-fluoro-ethyl)-urea]
5 | 88 | 1.26 | 980 | 0.48 | 876 | 0.74 | – | Cc1cccc(CNC(=O)NCCF)c1 [Compound 5, 1-(2-fluoro-ethyl)-3-(3-methyl-benzyl)-urea]
6 | 85 | 0.9 | 122 | 0.36 | 488 | 1.1 | – | O=C(NCCF)NCc1ccccc1Br [Compound 6, 1-(2-bromo-benzyl)-3-(2-fluoro-ethyl)-urea]
7 | 355 | 0.84 | > 2000 | 0.46 | 556 | 0.81 | – | O=C(NCCF)NCc1cccc(Br)c1 [Compound 7, 1-(3-bromo-benzyl)-3-(2-fluoro-ethyl)-urea]
8 | 569 | 0.8 | – | – | 950 | 0.93 | not active | O=C(NCCF)NCc1ccccc1C(F)(F)F [Compound 8, 1-(2-fluoro-ethyl)-3-(2-trifluoromethyl-benzyl)-urea]
9 | 171 | 0.76 | 1480 | 0.48 | 302 | 0.62 | – | O=C(NCCF)NCc1cccc(I)c1 [Compound 9, 1-(2-fluoro-ethyl)-3-(3-iodo-benzyl)-urea]
10 | 88 | 0.91 | – | – | 446 | 0.86 | not active | O=C(NCCF)NCc1cccc(Cl)c1Cl [Compound 10, 1-(2,3-dichloro-benzyl)-3-(2-fluoro-ethyl)-urea]
11 | 106 | 0.9 | – | – | 1090 | 0.66 | not active | O=C(NCCF)NCc1cccc(C(F)(F)F)c1Cl [Compound 11, 1-(2-chloro-3-trifluoromethyl-benzyl)-3-(2-fluoro-ethyl)-urea]
12 | 277 | 0.89 | – | – | 489 | 0.78 | not active | O=C(NCCF)NCc1ccccc1I [Compound 12, 1-(2-fluoro-ethyl)-3-(2-iodo-benzyl)-urea]
13 | 96 | 0.86 | 1010 | 0.59 | 192 | 0.72 | – | O=C(NCCF)NCc1cccc(I)c1I [Compound 13, 1-(2-fluoro-ethyl)-3-(2,3-diiodo-benzyl)-urea]
14 | 8.5 | 0.85 | 366 | 0.34 | 101 | 0.66 | – | Cc1cccc(CNC(=O)NCCF)c1Cl [Compound 14, 1-(2-chloro-3-methyl-benzyl)-3-(2-fluoro-ethyl)-urea]
15 | 25 | 1.3 | 224 | 0.46 | 297 | 0.88 | – | O=C(NCCF)NCc1cccc(Br)c1Cl [Compound 15, 1-(3-bromo-2-chloro-benzyl)-3-(2-fluoro-ethyl)-urea]
16 | 93 | 1.32 | 1020 | 0.66 | 724 | 0.72 | – | COc1c(Cl)cccc1CNC(=O)NCCF [Compound 16, 1-(3-chloro-2-methoxy-benzyl)-3-(2-fluoro-ethyl)-urea]
